The target of series [1] is T1, human acetylcholine esterase (Homo sapiens, UniProt P22303).
T1 construct: purchased Sigma C-5400
Nature of the series: Determination of acetylcholine esterase (AChE) inhibiting activity. The format is biochemical. The settings on record: read-out: AChE inhibition activity IC50. How it is done: (4) Determination of Acetylcholine Esterase (AChE) Inhibiting Activity
The substance for analysis was dissolved in distilled water as specimen. To 50 μL of the specimen serially diluted, 50 μL of enzyme solution, wherein human acetylcholine esterase (manufactured by Sigma, C-5400) had been dissolved in distilled water at 0.1 U/mL was added. To this solution, 50 μL of the solution which was prepared by dissolving 5,5′-dithiobis (manufactured by Nacarai Tesque, 141-01) in phosphate buffer (0.1M NaH2PO4—Na2HPO4, pH 7.0) at 0.5 mM is,added and mixed, and reacted with 50 μL of the solution wherein acetylthiocholine iodide (Wako Company, 017-09313) had been dissolved in phosphate buffer at 3 mM, at room temperature. As a control distilled water was added instead of the substance for analysis and the absorbance (A450) was determined over time. As a blank, phosphate buffer was added instead of the enzyme solution and the 50% inhibition activity (IC50),was determined.

A further series relates to normal human plasma. The series is described as follows: Determination of anticoagulation activity (APTT). The format is biochemical. The settings on record: concentration corresponding to 2-fold elongation of coagulation time. How it is done: (3) Determination of Anticoagulation Activity (APTT):
To 100 μL of normal human plasma (Ci-Trol®) manufactured by DADE, 100 μL of the specimen was added, and incubated at 37° C. for 1 minute. To this solution, 100 μL of APTT reagent (manufactured by DADE) which was, retained at 37° C. was added, and after incubating at 37° C. for 2 minutes, 100 μL of 25 mM calcium chloride solution was added, and the coagulation time was determined using the coagulation measurement apparatus manufactured by AMELUNG. The coagulation time when physiological salt solution was added instead of the analyte is used as a control, the concentration of the specimen corresponding to the 2-fold elongation of this coagulation time (CT2) is calculated, and this value is used as,the indication of the anticoagulation activity.

The target of a further series is T2, human thrombin (Homo sapiens, UniProt P00734).
T2 construct: 1 U/mL human thrombin
The series is described as follows: Determination of thrombin inhibiting activity, chromogenic substrate S-2238. The settings on record: substrate S-2238, 30 min incubation, A405, read-out: Thrombin inhibition activity IC50. The format is biochemical. How it is done:
(2) Determination of Thrombin Inhibiting Activity:
To 70 μL of the specimen serially diluted with water, 90 μL of 100 mM Tris buffer (pH 8.4), 20 μL of 50 mM Tris buffer (pH 8.4) containing 1 U/mL human thrombin, and 2 mM substrate (Daiichi Chemical S-2238) were added and incubated for 30 min., 50μL of 50% acetic acid was added, and the absorbance (A405) were determined. As, a blank, Tris buffer was added instead of thrombin while as a control, water is added instead of the specimen. The 50% inhibition activity (IC50) was determined as the indication of thrombin inhibiting activity.

A short description of series [2]: Determination of bioavailability (BA) in mouse. The class given is in vivo. The settings on record: fasted male ICR mice; oral 10 mg/kg vs intravenous 3 mg/kg; from plasma AUC. How it is done: (5) Determination of Bioavailability (BA):
The substance for analysis was dissolved in distilled water (for oral administration; 10 mg/kg) or physiological salt solution (for intravenous administration; 3 mg/kg) to prepare a solution for administration. This solution was administered to fasted ICR mice (male, 6 weeks aged), the whole blood was extracted from the heart under ether anesthesia at 5 min. (intravenous administration group only), 15 min., 30 min., 1 hr., 2 hr. and 4 hr. after the administration, and the plasma was separated by the centrifugation (3,500 rpm, 30 min., 4° C.) to produce the specimen (n=4). Using the above method for determining FXa inhibiting activity, the calibration curve for the substance for analysis was previously prepared and the concentration of the substance for analysis in the specimen was determined. The lower area of the concentration in plasma—time curve (AUC) was calculated and then the bioavailavility in the mouse (BA) was calculated according to the following formula: [formula]

For another series, the target named is human FXa (Homo sapiens, UniProt P00742). The series is described as follows: Determination of inhibiting activity of activated blood coagulation factor X (FXa), chromogenic substrate S-2765. The format is biochemical. The settings on record: substrate S-2765, 30 min incubation, A405, read-out: Fxa inhibition activity IC50. How it is done:
(1) Determination of Inhibiting Activity of Activated Blood Coagulation Factor X (FXa):
The substance for analysis was dissolved in water or water wherein a suitable concentration of organic solvents (DMSO ethanol or .methanol) had been added, as a specimen. To 70 μL of the specimen serially diluted with water, 90 μL of 100 mM Tris buffer (pH 8.4), 20 μL of 50 mM Tris buffer (pH 8.4) containing 50 mU/mL human FXa, and 2 mM substrate (Daiichi Chemical S-2765) were added and incubated for 30 min., 50 μL of 50% acetic acid was added, and the absorbance (A405) were determined. As a blank, Tris buffer was added instead of FXa while, as a control, water was added instead of the specimen. The 50% inhibition activity (IC50) was determined as the indication of FXa inhibiting activity.

pIC50: −log10 of the molar value. Structures can show the parent of a compound that is named as a salt. A value given as a limit tells only on which side of the number the result lay.

T1 sequence (P22303 32-617 isoform P22303-2 limits assumed): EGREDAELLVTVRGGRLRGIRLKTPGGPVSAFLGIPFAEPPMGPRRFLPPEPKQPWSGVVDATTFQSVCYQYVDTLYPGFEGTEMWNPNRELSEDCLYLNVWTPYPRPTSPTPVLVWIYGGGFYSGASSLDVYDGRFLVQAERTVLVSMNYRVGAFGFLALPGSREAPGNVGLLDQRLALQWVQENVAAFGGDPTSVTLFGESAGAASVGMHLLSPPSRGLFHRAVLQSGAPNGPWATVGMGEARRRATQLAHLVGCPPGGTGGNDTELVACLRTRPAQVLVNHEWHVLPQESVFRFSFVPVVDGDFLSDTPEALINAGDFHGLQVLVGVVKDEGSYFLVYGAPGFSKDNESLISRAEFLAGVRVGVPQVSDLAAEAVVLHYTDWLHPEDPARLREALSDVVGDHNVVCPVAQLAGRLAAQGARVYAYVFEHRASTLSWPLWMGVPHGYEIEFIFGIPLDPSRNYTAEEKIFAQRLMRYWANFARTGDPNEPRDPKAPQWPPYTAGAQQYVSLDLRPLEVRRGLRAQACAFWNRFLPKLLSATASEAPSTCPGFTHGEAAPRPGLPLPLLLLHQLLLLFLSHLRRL
Chain of human FXa (P00742 235-488 limits assumed): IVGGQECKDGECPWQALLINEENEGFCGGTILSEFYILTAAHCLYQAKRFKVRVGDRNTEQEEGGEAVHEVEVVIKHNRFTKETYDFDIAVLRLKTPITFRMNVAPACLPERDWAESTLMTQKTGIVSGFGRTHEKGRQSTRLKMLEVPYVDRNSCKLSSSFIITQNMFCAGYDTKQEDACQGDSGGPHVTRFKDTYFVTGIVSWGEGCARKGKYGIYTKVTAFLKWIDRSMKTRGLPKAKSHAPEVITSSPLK
Chain of human FXa (P00742 41-179 partner limits assumed): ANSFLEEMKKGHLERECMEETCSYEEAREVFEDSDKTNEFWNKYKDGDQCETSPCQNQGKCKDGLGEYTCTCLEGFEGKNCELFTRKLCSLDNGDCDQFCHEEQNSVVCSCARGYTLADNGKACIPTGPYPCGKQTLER

On to `N=C(N)c1cccc(-c2cc(CNCC3CCN(CCO)CC3)cc(C(=O)O)c2)c1` [Example 72], for which the pIC50 in series [1] was under 3.60; at human thrombin, under 3.00; on human FXa it was 5.92. Besides, in the series on normal human plasma, the “APTT CT2” value was 11 µM. For the same molecule, the “Mouse BA” value in series [2] amounted to 13%.

On to `CC(=N)N1CCC(CN(C)Cc2cc(C(=O)O)cc(-c3cccc(C(=N)N)c3)c2)CC1` [Example 74], for which the pIC50 in series [1] is 3.82; at human thrombin it was under 3.00; at human FXa, 6.23. In the series on normal human plasma, the “APTT CT2” value was 5.4 µM. Further, in series [2], the “Mouse BA” value is 13%.

With `N=C(N)c1cccc(-c2cc(CNCC3CCCCC3)cc(C(=O)O)c2)c1` [Example 73], the pIC50 in series [1] was under 3.60; on human thrombin, under 3.00; on human FXa it was 5.77. The “APTT CT2” value with normal human plasma turned out to be 13 µM.

With `CC(=N)N1CCC(COCc2cc(C(=O)O)cc(-c3cccc(C(=N)N)c3)c2)CC1` [Example 61, 3-(3-Amidinophenyl)-5-[(1-acetoimidoyl-4-piperidinyl)methoxymethyl]benzoic Acid.hydrochloride], the pIC50 in series [1] is 4.31; on human thrombin, under 3.00; on human FXa, 7.20. Also, the “APTT CT2” value in the series on normal human plasma was determined as 0.76 µM. For the same molecule, the “Mouse BA” value in series [2] was determined as 10%.

On to `CC(=N)N1CCC(COCc2cc(CCC(=O)O)cc(-c3cccc(C(=N)N)c3)c2)CC1` [Example 82], for which the results for the pIC50 (in series [1]; on human thrombin; on human FXa) were 3.77, under 3.00 and 6.89, respectively. Besides, in the series with normal human plasma, the “APTT CT2” value came out at 1.9 µM. Besides, the “Mouse BA” value in series [2] came to 11%.

Turning to `CC(=N)N1CCC(CN(CCO)Cc2cc(C(=O)O)cc(-c3cccc(C(=N)N)c3)c2)CC1` [Example 81], the pIC50 in series [1] is 3.89; on human thrombin, 3.09; at human FXa, 6.68. For the same molecule, in the series on normal human plasma, the “APTT CT2” value turned out to be 2.8 µM. In addition, the “Mouse BA” value in series [2] is 7%.

With `CC(=N)N1CCC(CNCc2cc(C(=O)O)cc(-c3cccc(C(=N)N)c3)c2)CC1` [Example 70], the results for the pIC50 (in series [1]; at human thrombin; on human FXa) were 3.85, under 3.00 and 6.72, respectively. Moreover, the “APTT CT2” value with normal human plasma came to 2.0 µM. The “Mouse BA” value in series [2] was 11%.

One may read the pIC50 as −log10 of the IC50, conventionally taken in molar units.

The values are drawn from US6706745B1, “Biphenylamidine derivatives” (Teijin Limited, priority 1997, dated 2004).
